Data from publication PMC8381248 (Frontiers in Pharmacology, 2021).
Values after ≈ are worked out from the molar mass of the structure shown.

Assays:
[1] = Metabolic stability in human liver microsomes; settings: for T1/2: 0.5 mg/ml microsomal protein, n = 2
Protocol: Then, this incubation plate containing mixed solution and NADPH regeneration system was agitated on a plate shaker at 100 rpm and pre-incubated at 37°C for 5 min. Subsequently, 300 μL of precooled quenching solution was added to each well of another deep-well plate (quench plate), which was cooled on ice. The solution in the incubation plate was transferred into the well of the quench plate as the samples in 0 min before it was mixed with another 20 µL of NADPH regeneration solution in the wells.
The incubation plate was incubated at 37°C for 0, 10, 30, and 90 min. At each time point, 100 μL of the supernatant in the incubation plate was removed from each well, quenched immediately, transferred to the wells of the ice-cold quench plate, and vortexed for 5 min. Additionally, an equal volume of pre-warmed fresh regeneration solution was added to the incubation plate for compensation after every withdrawal. […] Each test was operated in duplicate. The determination conditions of LC-MS/MS are shown in Support Materials (Supplementary Table S4).
The in vitro T1/2 was determined by converting the analyte/IS peak area ratios to percentage of drug remaining using the initial peak (t = 0 min) area ratio values as 100%.

[2] = tested on: PE-constricted aortic rings; assay: Vasorelaxant effects on isolated PE-constricted aortic rings; design: species or system SD rats; settings: 10^–6 M PE, n = 6
Protocol: SD rats were anesthetized by exposure to ether, and the thoracic aorta was removed and immersed in Krebs-Henseleit (K-H) buffer ([Lee et al., 2013]) at 4°C. The connective tissues and fats around the aorta were carefully removed under the microscopes, and the blood was flushed. The aorta ring was cut into four sections approximately 3 mm long and suspended in organ chambers containing K-H buffer. The endothelium was also removed by gently rubbing the lumen of the vessel with a cotton swab. The aortic rings were placed in a 5 ml organ chambers of DMT multiwire myograph system (620M, Danish Myo Technology, Denmark) and were filled with K-H buffer aerated with 95% O2 and 5% CO2 at 37°C. The aortic rings were mounted on hooks connected to a tension transducer and a displacement device.
The initial vessel tension was slowly adjusted to 15 mN and maintained balanced for 60 min. The buffer was renewed once every 15 min. After equilibration, the vessel viability was pre-constricted by exposing the aortic rings to 60 mM KCl for 10 min ([Ding et al., 2019]). Then, the K-H buffer was continuously renewed to elute and restore the initial tension of the vascular ring to assay the vascular activity. The pre-treated operation was repeated two times, where the constriction amplitude after each KCl stimulation to reach the previous constriction amplitude was taken as the criterion, before the experiment continued. Subsequently, 10^–6 M PE was added to contract the blood vessel. After the constriction was stable, different concentrations of Ach (10^−9–10^–5 M) were used to dilate the vessels. Then, the vasorelaxation degree could be calculated with different Ach concentrations, as the following equation: Vasorelaxation degree (%)=Maxium constriction tension induced by PE−Minium diastolic tension induced by Ach/Maxium constriction tension induced by PE−Resting tension×100% (10) When the vasorelaxation degree corresponding to Ach (10^–5 M) is greater than 80%, the vascular endothelium is considered intact and functional. The endothelium is considered to be removed with a vasorelaxation degree of less than 20% ([Lee et al., 2013]). Endothelium-intact and endothelium-denuded aortic rings from the same aorta were tested.
After equilibration, the endothelium-intact and the endothelium-denuded aortic rings were pre-constricted with 10^–6 M PE in the K-H buffer system.
After equilibration, the endothelium-intact aortic rings were pre-constricted with 10^–6 M PE in the K-H buffer system. […] Then, the corresponding vasoconstrictive responses were examined and recorded.
In the vasorelaxant effects investigations, all the data are presented as mean ± SEM. Statistical analysis was performed using two-way ANOVA followed by Fisher’s least significant difference (LSD) test. Values at p < 0.05 were considered statistically significant.

[3] = in vitro; settings: PAMPA
Protocol: Verapamil and digoxin solutions, used as reference, prepared in the same manner as the test drugs. Tolbutamide dissolved with acetonitrile (200 ng/ml) was used as IS.
The resultant supernatants were determined by LC-MS/MS. The specific assay conditions are shown in Support Materials (Supplementary Table S2).

[4] = Kinetic solubility test in PBS; type: physicochemical; settings: phosphate-buffer saline (PBS), aqueous buffer, kinetic from dmso stock; PBS (100 mM, pH 7.4)
Protocol: Internal standard (IS) solutions (propranolol and tolbutamide) were dissolved by acetonitrile (50 ng/ml propranolol + 200 ng/ml tolbutamide).
The sample solutions were analyzed using LC-MS/MS. All the samples (test samples and references) for detection were prepared in duplicate. The conditions for LC-MS/MS are shown in Support Materials (Supplementary Table S1).

Molecule: COc1ccc2c(c1)[C@]13CCCC[C@@H]1[C@H](C2)N(C)CC3 [Dextromethorphan, dextromethorphan, reference compound]
- T1/2 ([1]; HLM with NADPH): 63.8 min
- microsomal CLint ([1]; human, microsomes): 21.7 µL/min/mg

Molecule: Pinoresinol [PINL]
- vasorelaxant effect on PE-constricted aortic rings ([2]; increasing concentration 25–200 μM): concentration-dependent vasorelaxation
- vasorelaxation degree, endothelium-denuded versus endothelium-intact group ([2]; PINL difference at 50–100 μM): significantly lower
- vasorelaxant response compared between groups ([2]; endothelium-intact rings, PINL vs PDG at 50 μM, combination vs single at 25, 50 and 100 μM): significantly better than in the PDG group

Molecule: C[C@H]1O[C@@H](O[C@H]2[C@@H](O)C[C@H](O[C@H]3[C@@H](O)C[C@H](O[C@H]4CC[C@@]5(C)[C@H](CC[C@@H]6[C@@H]5C[C@@H](O)[C@]5(C)[C@@H](C7=CC(=O)OC7)CC[C@]65O)C4)O[C@@H]3C)O[C@@H]2C)C[C@H](O)[C@@H]1O [Digoxin, digoxin, reference compound]
- Papp at 18000 s [3]: 0.589 ×10⁻⁶ cm/s

Molecule: COC(=O)C1=C(C)NC(C)=C(C(=O)OCCN(C)Cc2ccccc2)C1c1cccc([N+](=O)[O-])c1 (stereo not drawn) [nicardipine, reference compound]
- solubility kinetic [4]: 9.94 ± 0.05 µg/mL (≈ 20.7 µM)

Molecule: COc1ccc2[nH]c([S+]([O-])Cc3ncc(C)c(OC)c3C)nc2c1 (stereo not drawn) [Omeprazole, omeprazole, reference compound]
- T1/2 ([1]; RLM with NADPH): 15.6 min

Molecule: CC(=O)N1CCN(c2ccc(OCC3COC(Cn4ccnc4)(c4ccc(Cl)cc4Cl)O3)cc2)CC1 (stereo not drawn) [ketoconazole, reference compound]
- solubility kinetic [4]: 38.9 ± 1.54 µg/mL (≈ 73.2 µM)
